Read-outs that look alike come from different tables or passages of the source.
Experiments:
[1] = test system: Pseudomonas chloritidismutans; conditions: LB, 60 μM chlorite alone, 37° C
Experimental: (§7) For growth experiments, P. chloritidismutans was grown in LB medium to an OD600 of 0.233 (selected from a dilution series made from an overnight culture). […] Each condition was replicated in six wells of a microtiter plate incubated at 37° C. Optical density (600 nm) was recorded during growth in a plate reader.

[2] = test system: Shewanella oneidensis strain MR-1 wild type containing an empty expression vector (strain RAM13); conditions: aerobic
lytic phage particles = conditions: culture medium treated with chlorite at 15 mM; cited from earlier work
[3] = test system: wild-type Caulobacter crescentus NA1000 harboring pJS14; conditions: PYE with 0.3% xylose
Experimental: (§1) Wild-type Caulobacter crescentus NA1000 (Marks, M. E., et al. (2010) J. Bacteriol. 192:3678-88) was grown in peptone-yeast extract medium (PYE; see Ely, B. (1991) Methods Enzymol. 204:372-84) supplemented with 0.1% (v/v) ferrous sulphate/chelate solution (Sigma # F0518). The plasmid pJS14 is a derivative of the broad-host-range cloning vector pBBR1MCS (Kovach, M. E., et al. (1994) Biotechniques 16:800-2), which confers resistance to chloramphenicol. To express Cld from pJS14, the cld open reading frame from P. chloritidismutans was placed behind a ˜430 base pair NcoI-EcoRI fragment of the xylX promoter from C. crescentus (Meisenzahl, A. C., et al. (1997) J. Bacteriol. 179:592-600). pJS14-xylX::cld or the empty vector pJS14 was transformed into NA1000 with selection using 1 μg/ml chloramphenicol.
(§2) The two strains were grown separately in PYE/chloramphenicol/ferrous sulphate supplemented with 0.3% xylose to induce cld expression. […] Each strain/condition was assayed in six individual wells.

[4] = test system: Caulobacter crescentus NA1000 harboring pJS14-xylX::cld; conditions: PYE with 0.3% xylose
Experimental: as §1, §2

[5] = test system: Azospira suillum strain PS (wild type); conditions: grown aerobically, 40 μM chlorite
Experimental: (§3) Azospira suillum PS (ATCC BAA-33/DSMZ 13638) was revived from a lab freezer stock and used as the wild-type strain for all genetic manipulations. Various E. coli strains were also used for cloning and conjugation purposes. Prior to all growth curves and genetic manipulations, all strains were streaked out from master freezer stocks to get single colonies.
(§4) E. coli strains were grown in LB media. Kanamycin (Kan, […]) was used for selection and diaminopimelic acid (DAP, 0.3 mM) was used as a supplement to cultivate the auxotrophic strain WM3064. For routine culturing as well as growth assays, wild-type and mutant strains of PS were grown in ALP media. One liter of ALP media is composed of 0.49 g monobasic sodium phosphate dihydrate, 0.97 g dibasic anhydrous sodium phosphate, 0.1 g potassium chloride, 0.25 g ammonium chloride, 0.82 g sodium acetate, 2.0 g yeast extract, 7.6 g of a 60% w/w sodium lactate solution, 1.10 g sodium pyruvate and 10 mL of both vitamin mix and mineral mix. To make solid ALP media for plates, 15 g/L agar was added. Kanamycin was used for selection of PS mutants at a concentration of […]. For anaerobic growth of PS, ALP media was supplemented with either 5 mM sodium nitrate, 2.5 mM sodium perchlorate, or 5 mM of both sodium nitrate and sodium perchlorate.

[6] = test system: Azospira suillum strain PS Δcld mutant; conditions: grown aerobically, 40 μM chlorite
Experimental: as §3, §4

[7] = test system: Caulobacter strain KR3557 (chlorite dismutase expression plasmid); conditions: 0.5 mM chlorite, 1:1 co-culture with KR260, 30° C
Experimental: (§5) Caulobacter crescentus NA 1000 harboring either pJS71 (KR260) or pJS14-xylX::cld (KR3557) were grown in PYE medium supplemented with 0.1% ferrous sulphate/chelate (Sigma # F0518) and 0.3% xylose to induce cld expression. pJS71 is a derivative of the broad-host-range plasmid pBBR1MCS (Kovach, M. E., et al. (1994) Biotechniques 16:800-2), which confers resistance to spectinomycin. […] Samples were withdrawn from each co-culture at the indicated times, diluted, and plated on PYE medium supplemented with 1 μg/ml chloramphenicol or with 100 μg/ml spectinomycin to enumerate survivors of each species.
(§6) Rather, both strains were co-cultured in PYE medium without selection, samples were taken, and the number of surviving colonies that were resistant to spectinomycin (KR260) or chloramphenicol (KR3557) were counted at the indicated times (FIG. 8).

[8] = test system: Caulobacter strain KR260 (empty plasmid); conditions: 0.5 mM chlorite, 1:1 co-culture with KR3557, 30° C
Experimental: as §5, §6

[9] = test system: bacteriophage that attacks Pseudomonas chloritidismutans; conditions: LB, 60 μM chlorite plus phage together, 37° C
Experimental: as §7

[10] = test system: Shewanella oneidensis strain MR-1 engineered strain (ICC38); conditions: aerobic

In the case of chlorite, the “growth of P. chloritidismutans” value [1] is reported as “did not hinder the growth”, the “growth of the wild type strain (RAM13)” value ([2]; 250 μM chlorite) is reported as “significant reduction in the growth rate” and the “growth of the wild type strain (RAM13)” value ([2]; 1000 μM chlorite) is reported as “completely inhibited”. For the same substance, the “reduction in lytic phage particles” value (lytic phage particles) was “greater than 99%”, the “growth of wild-type Caulobacter (pJS14)” value ([3]; 1 mM chlorite) was “completely blocked” and the “growth of wild-type Caulobacter (pJS14)” value ([3]; 4 mM chlorite) was “completely blocked”. For the same substance, the “growth of Caulobacter expressing chlorite dismutase versus control medium lacking chlorite” value ([4]; 1 mM chlorite) was “growing at the same rate”, the “growth of Caulobacter expressing chlorite dismutase versus control medium lacking chlorite” value ([4]; 4 mM chlorite) was “growing at the same rate” and the “growth of the wild type strain” value [5] was “unimpaired”. The “growth of the Δcld mutant” value [6] was “no growth is observed”, the “growth of KR3557 in co-culture” value [7] was “slightly reduced rate” and the “growth of KR260 in co-culture” value [8] was “completely blocked”. The “growth of P. chloritidismutans with live phage” value [9] was “wild-type growth rate”, the “growth of the recombinantly engineered strain (ICC38)” value ([10]; 250 μM chlorite) was “unimpaired” and the “growth of the recombinantly engineered strain (ICC38)” value ([10]; 1000 μM chlorite) was “minimal growth impairment”.

Reference: patent US10724010B2 (The Regents of the University of California, priority 2013, dated 2020)
